In patent US20240173419A1, “CDK2 DEGRADERS AND USES THEREOF” (Kymera Therapeutics, Inc., priority 2022, published 2024):

Biological target: T1, CDK2 (Homo sapiens, UniProt P24941)
T1 construct: endogenous in cells; host or cells: MKN1 cells
Test: CDK2 degradation in MKN1 cells (AlphaLISA)
Assay type: cell-based
Set-up: key to CDK2 degradation 14 h: Mean external-Abs DC50 (nM): A (<100 nM); B (≥100-500 nM); C (>500-1000 nM); D (>1000 nM); E (not achieved)
Settings: 14 h incubation; for DC50: read-out: CDK2 degradation 14 h: Mean external-Abs DC50
How it was run: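 DC50 from four-parameter logistic fit of AlphaLISA CDK2 signal, corrected for no-cell wells. Lysates came from MKN1 cells, 2e4 per well, exposed 14 h at 37° C to compound at 0.001 nM-10 μM (1:5 series, 11 doses) in 0.1% DMSO.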

Row | Compound | CDK2 degradation 14 h: Average Dmax % | DC50 [nM] | CDK2 degradation 14 h: Mean external-Abs DC50 (nM)
1 | Cc1cc(S(=O)(=O)N2CCC(OCC#Cc3cccc4c3n(C)c(=O)n4C3CCC(=O)NC3=O)CC2)ccc1Nc1ncc2ccc(=O)n(C3CCCC3)c2n1 (stereo not shown) [I-447] | D (D (<25%)) | > 1000 | –
2 | Cc1cc(S(=O)(=O)N2CCC(CN3CCN(c4cccc5c4n(C)c(=O)n5C4CCC(=O)NC4=O)CC3)CC2)ccc1Nc1ncc2ccc(=O)n(C3CCCC3)c2n1 (stereo not shown) [I-451] | C (C (>25% -50%)) | – | E
3 | Cc1cc(S(=O)(=O)N2CCC(OCCCc3ccc4c(c3)n(C)c(=O)n4C3CCC(=O)NC3=O)CC2)ccc1Nc1ncc2ccc(=O)n(C3CCCC3)c2n1 (stereo not shown) [I-453] | D (D (<25%)) | > 1000 | –
4 | Cc1cc(S(=O)(=O)N2CCC(OCCCc3cccc4c3n(C)c(=O)n4C3CCC(=O)NC3=O)CC2)ccc1Nc1ncc2ccc(=O)n(C3CCCC3)c2n1 (stereo not shown) [I-454] | C (C (>25% -50%)) | > 1000 | –
5 | Cc1cc(S(=O)(=O)N2CCC(OCC#Cc3cccc4c3n(C)c(=O)n4C3CCC(=O)NC3=O)CC2)ccc1Nc1ncc2cc(Cl)c(=O)n(C3CCCC3)c2n1 (stereo not shown) [I-455] | D (D (<25%)) | > 1000 | –
6 | Cc1cc(S(=O)(=O)N2CCC3(CCN(Cc4cccc5c4n(C)c(=O)n5C4CCC(=O)NC4=O)CC3)CC2)ccc1Nc1ncc2ccc(=O)n(C3CCCC3)c2n1 (stereo not shown) [I-458] | B (B (>50% -75%)) | 100 to 500 | –
7 | Cc1cc(S(=O)(=O)N2CCN(CCCCOCCCc3ccc4c(c3)n(C)c(=O)n4C3CCC(=O)NC3=O)CC2)ccc1Nc1ncc2ccc(=O)n(C3CCCC3)c2n1 (stereo not shown) [I-459] | B (B (>50% -75%)) | 100 to 500 | –
8 | Cc1cc(S(=O)(=O)N2CC3(CC(OCCN4CCC(c5ccc6c(c5)n(C)c(=O)n6C5CCC(=O)NC5=O)CC4)C3)C2)ccc1Nc1ncc2ccc(=O)n(C3CCCC3)c2n1 (stereo not shown) [I-463] | C (C (>25% -50%)) | – | E
9 | Cc1cc(S(=O)(=O)NCCOCCOCCCc2ccc3c(c2)n(C)c(=O)n3C2CCC(=O)NC2=O)ccc1Nc1ncc2c(C)cc(=O)n(C3CCCC3)c2n1 (stereo not shown) [I-466] | D (D (<25%)) | > 1000 | –
10 | Cc1cc(S(=O)(=O)NCCOCCOCCOCCOCCCc2ccc3c(c2)n(C)c(=O)n3C2CCC(=O)NC2=O)ccc1Nc1ncc2c(C)cc(=O)n(C3CCCC3)c2n1 (stereo not shown) [I-467] | C (C (>25% -50%)) | – | E
11 | Cc1cc(S(=O)(=O)NCCOC2CCC3(CC2)CCN(CCCc2ccc4c(c2)n(C)c(=O)n4C2CCC(=O)NC2=O)CC3)ccc1Nc1ncc2ccc(=O)n(C3CCCC3)c2n1 (stereo not shown) [I-470] | A (A (>75% o)) | < 100 | –
12 | Cc1cc(S(=O)(=O)NCCOC2CCC3(CC2)CCN(CC#Cc2ccc4c(c2)n(C)c(=O)n4C2CCC(=O)NC2=O)CC3)ccc1Nc1ncc2ccc(=O)n(C3CCCC3)c2n1 (stereo not shown) [I-471] | A (A (>75% o)) | < 100 | –
13 | Cc1cc(S(=O)(=O)NCCOC2CC3(C2)CN(CCCc2ccc4c(c2)n(C)c(=O)n4C2CCC(=O)NC2=O)C3)ccc1Nc1ncc2ccc(=O)n(C3CCCC3)c2n1 (stereo not shown) [I-472] | A (A (>75% o)) | < 100 | –
14 | Cc1cc(S(=O)(=O)NCCOC2CC3(C2)CN(CC#Cc2ccc4c(c2)n(C)c(=O)n4C2CCC(=O)NC2=O)C3)ccc1Nc1ncc2ccc(=O)n(C3CCCC3)c2n1 (stereo not shown) [I-473] | A (A (>75% o)) | < 100 | –
15 | Cc1cc(S(=O)(=O)NCCOCCOCCOCCCc2ccc3c(c2)n(C)c(=O)n3C2CCC(=O)NC2=O)ccc1Nc1ncc2ccc(=O)n(C3CCCC3)c2n1 (stereo not shown) [I-474] | A (A (>75% o)) | < 100 | –
16 | Cc1cc(S(=O)(=O)NCCOCCOCCCc2ccc3c(c2)n(C)c(=O)n3C2CCC(=O)NC2=O)ccc1Nc1ncc2ccc(=O)n(C3CCCC3)c2n1 (stereo not shown) [I-475] | A (A (>75% o)) | < 100 | –

Other lines, results leading:

Row | CDK2 degradation 14 h: Average Dmax % | DC50 [nM] | CDK2 degradation 14 h: Mean external-Abs DC50 (nM) | Compound
17 | A (A (>75% o)) | < 100 | – | Cc1cc(S(=O)(=O)NCCOC2CCN(CC3CCN(c4ccc5c(c4)n(C)c(=O)n5C4CCC(=O)NC4=O)CC3)CC2)ccc1Nc1ncc2cc(Cl)c(=O)n(C3CCCC3)c2n1 (stereo not shown) [I-434]
18 | A (A (>75% o)) | < 100 | – | Cc1cc(S(=O)(=O)N(C)CCO[C@H]2CC[C@H](CN3CCC(c4ccc5c(c4)n(C)c(=O)n5C4CCC(=O)NC4=O)CC3)CC2)ccc1Nc1ncc2cc(Cl)c(=O)n(C3CCCC3)c2n1 (stereo partly shown) [I-435]
19 | A (A (>75% o)) | < 100 | – | Cc1cc(S(=O)(=O)N2CCC(CN(C)C3CCN(c4cccc5c4n(C)c(=O)n5C4CCC(=O)NC4=O)CC3)CC2)ccc1Nc1ncc2cc(Cl)c(=O)n(C3CCCC34CC4)c2n1 (stereo not shown) [I-436]
20 | A (A (>75% o)) | < 100 | – | Cc1cc(S(=O)(=O)N2CCC(CN(C)C3CCN(c4cccc5c4n(C)c(=O)n5C4CCC(=O)NC4=O)CC3)CC2)ccc1Nc1ncc2cc(Cl)c(=O)n(C(C)C)c2n1 (stereo not shown) [I-437]
21 | A (A (>75% o)) | < 100 | – | Cc1cc(S(=O)(=O)N2CCC(CN(C)C3CCN(c4cccc5c4n(C)c(=O)n5C4CCC(=O)NC4=O)CC3)CC2)ccc1Nc1ncc2cc(C(F)F)c(=O)n(C3CCCC3)c2n1 (stereo not shown) [I-438]
22 | A (A (>75% o)) | < 100 | – | Cc1cc(S(=O)(=O)NCCO[C@H]2CC[C@H](CN3CCC(c4ccc5c(c4)n(C)c(=O)n5C4CCC(=O)NC4=O)CC3)CC2)ccc1Nc1ncc2cc(Cl)c(=O)n(C3CCCC34CC4)c2n1 (stereo partly shown) [I-439]
23 | A (A (>75% o)) | < 100 | – | Cc1cc(S(=O)(=O)NCCO[C@H]2CC[C@H](CN3CCC(c4ccc5c(c4)n(C)c(=O)n5C4CCC(=O)NC4=O)CC3)CC2)ccc1Nc1ncc2cc(Cl)c(=O)n(C(C)C)c2n1 (stereo partly shown) [I-440]
24 | A (A (>75% o)) | < 100 | – | Cc1cc(S(=O)(=O)NCCO[C@H]2CC[C@H](CN3CCC(c4ccc5c(c4)n(C)c(=O)n5C4CCC(=O)NC4=O)CC3)CC2)ccc1Nc1ncc2cc(C(F)F)c(=O)n(C3CCCC3)c2n1 (stereo partly shown) [I-441]
25 | A (A (>75% o)) | < 100 | – | Cc1cc(S(=O)(=O)N2CCC(CN(C)C3CCN(c4cccc5c4n(C)c(=O)n5C4CCC(=O)NC4=O)CC3)CC2)ccc1Nc1ncc2cc(Cl)c(=O)n(C3CCCC3)c2n1 (stereo not shown) [I-442]
26 | A (A (>75% o)) | < 100 | – | Cc1cc(S(=O)(=O)NCCOC2CC3(C2)CN(Cc2ccc4c(c2)n(C)c(=O)n4C2CCC(=O)NC2=O)C3)ccc1Nc1ncc2ccc(=O)n(C3CCCC3)c2n1 (stereo not shown) [I-445]
27 | A (A (>75% o)) | < 100 | – | Cc1cc(S(=O)(=O)N2CCC(CN(C)C3CCN(Cc4cccc5c4n(C)c(=O)n5C4CCC(=O)NC4=O)CC3)CC2)ccc1Nc1ncc2ccc(=O)n(C3CCCC3)c2n1 (stereo not shown) [I-449]
28 | A (A (>75% o)) | < 100 | – | Cc1cc(S(=O)(=O)N2CCC(CN(C)C3CCN(c4cccc5c4n(C)c(=O)n5C4CCC(=O)NC4=O)CC3)CC2)ccc1Nc1ncc2ccc(=O)n(C3CCCC3)c2n1 (stereo not shown) [I-450]
29 | B (B (>50% -75%)) | < 100 | – | Cc1cc(S(=O)(=O)N2CCC(CN3CCN(Cc4cccc5c4n(C)c(=O)n5C4CCC(=O)NC4=O)CC3)CC2)ccc1Nc1ncc2ccc(=O)n(C3CCCC3)c2n1 (stereo not shown) [I-452]
30 | B (B (>50% -75%)) | < 100 | – | Cc1cc(S(=O)(=O)NCCOCCOCCOCCOCCCc2ccc3c(c2)n(C)c(=O)n3C2CCC(=O)NC2=O)ccc1Nc1ncc2c(C)c(Br)c(=O)n(C3CCCC3)c2n1 (stereo not shown) [I-460]
31 | A (A (>75% o)) | < 100 | – | Cc1cc(S(=O)(=O)NCCOCCOCCOCCCc2ccc3c(c2)n(C)c(=O)n3C2CCC(=O)NC2=O)ccc1Nc1ncc2cc(Cl)c(=O)n(C3CCCC3)c2n1 (stereo not shown) [I-461]
32 | A (A (>75% o)) | < 100 | – | Cc1cc(S(=O)(=O)N2CC(OCCN3CCC(c4ccc5c(c4)n(C)c(=O)n5C4CCC(=O)NC4=O)CC3)C2)ccc1Nc1ncc2ccc(=O)n(C3CCCC3)c2n1 (stereo not shown) [I-462]
33 | B (B (>50% -75%)) | < 100 | – | Cc1cc(S(=O)(=O)N2CCC(N3CCN(CCCc4ccc5c(c4)n(C)c(=O)n5C4CCC(=O)NC4=O)CC3)CC2)ccc1Nc1ncc2ccc(=O)n(C3CCCC3)c2n1 (stereo not shown) [I-464]
34 | A (A (>75% o)) | < 100 | – | Cc1cc(S(=O)(=O)NCCOC2CCC(CN3CCC(c4ccc5c(c4)n(C)c(=O)n5C4CCC(=O)NC4=O)CC3)CC2)ccc1Nc1ncc2ccc(=O)n(C3CCCC3)c2n1 (stereo not shown) [I-468]
35 | A (A (>75% o)) | < 100 | – | Cc1cc(S(=O)(=O)NCCOC2CCC(N(C)CC3CCN(c4ccc5c(c4)n(C)c(=O)n5C4CCC(=O)NC4=O)CC3)CC2)ccc1Nc1ncc2ccc(=O)n(C3CCCC3)c2n1 (stereo not shown) [I-469]
